Experimental data published in patent publication US3982931A, “N,N-di-sec.butyl-benzamide herbicides” (priority 1967, dated 1976).

Experiments:
Assay in all cases: herbicidal activity, soil treatment one day after sowing
Type in all cases: in vivo
[1] = system: amaranthus retroflexus L.
Source text: (§1) The infesting species and the agrarian species have been indicated in Table 1 by letters, as follows:
A = amaranthus retroflexus L.
(§2) Method of evaluation of the results (of tests):
(§3) 1 slight differences with respect to the control;
(§4) 3 = considerable activity with damages that definitely impair the further development of most of the small plants; an activity degree already useful for practical purposes;
(§5) 4 = maximum of activity with lack of germination or total containment of the small plants in the emerging stage.
(§6) In the case of an intermediate activity between two classes of the scale, both values are recorded with the one which corresponds to the preeminent activity preceding.
(§7) TABLE 2 reports the activity data of other compounds that fall within the class which is the object of this invention.
(§8) TABLE 3 reports data on the herbicidal activity against infesting herbs, while TABLE 4 reports data concerning the activity on useful species of agricultural cultivations. These tables employ the criterion explained previously. […]

setaria glauca L. = system: setaria glauca L.
Source text: as §1, §2, §3, §4, §5
In the case of an intermediate activity between two classes of the scale, both values are recorded with the one which corresponds to the preeminent activity preceding. […]
as §8

chenopodium album L. = system: chenopodium album L.
Source text: as §1, §2, §3, §4, §5, §6, §7, §8

artemisia vulgaris L. = system: artemisia vulgaris L.
Source text: as §1
B = artemisia vulgaris L.
as §2, §3, §4, §5, §6, §7, §8

vicia sativa L. = system: vicia sativa L.
Source text: as §1, §2, §3, §4, §5, §6, §7

[2] = system: echinocloa crus-galli R.S.
Source text: as §1
D = echinocloa crus-galli R.S.
as §2, §3, §4, §5, §6, §7, §8

Row | Structure (SMILES) | activity on A, 0-4 scale ([1]; 6 kg/ha) | activity on E, 0-4 scale (setaria glauca L.; 6 kg/ha) | activity on C, 0-4 scale (chenopodium album L.; 6 kg/ha) | activity on B, 0-4 scale (artemisia vulgaris L.; 6 kg/ha) | activity on F, 0-4 scale (vicia sativa L.; 6 kg/ha) | activity on D, 0-4 scale ([2]; 6 kg/ha) | other results
1 | O=C(O)c1ccc(Cl)c(Cl)c1 [3,4-dichloro-benzoic acid, reference compound] | 0 | 0 | 0 | 0 | 0 | 0 | –
2 | CCCCN(CCCC)C(=O)c1ccc(Cl)c(Cl)c1 [PA105, 3,4-dichloro-N,N-di-n.butyl-benzamide, reference compound] | 1-2 | 2 | 1 | 1-2 | 0-1 | 1 | activity on E, 0-4 scale (setaria glauca L.; 3 kg/ha): 1; activity on C, 0-4 scale (chenopodium album L.; 3 kg/ha): 0-1; activity on B, 0-4 scale (artemisia vulgaris L.; 3 kg/ha): 0-1; activity on F, 0-4 scale (vicia sativa L.; 3 kg/ha): 0; activity on D, 0-4 scale ([2]; 3 kg/ha): 0-1
3 | CCCN(CCC)C(=O)c1ccc(Cl)cc1Cl [PA200, 2,4-dichloro-N,N-di-n-propyl-benzamide, reference compound] | 3 | 1 | 2-3 | 2-3 | 0-1 | 2 | –
4 | CC(C)CN(CC(C)C)C(=O)c1ccc(Cl)c(Cl)c1 [PA259, 3,4-dichloro-N,N-di-iso-butyl-benzamide, reference compound] | 1-2 | – | 1-2 | 2 | 0-1 | – | –
5 | CC(C)N(C(=O)c1ccc(Cl)cc1Cl)C(C)C [PA281, 2,4-dichloro-N,N-di-isopropyl-benzamide, reference compound] | 1-2 | 0-1 | 0-1 | 2 | 0 | 0-1 | –
6 | CCCCN(CCCC)C(=O)c1ccc(Cl)cc1Cl [PA282, 2,4-dichloro-N,N-di-n.butyl-benzamide, reference compound] | 2 | 1 | 2 | 0 | 0-1 | 1 | –
7 | CCN(CC)C(=O)c1ccc(Cl)cc1Cl [PA283, 2,4-dichloro-N,N-diethyl-benzamide, reference compound] | 1 | 1 | 1-2 | 2 | 1 | 1 | –
8 | CCCCN(CCCC)C(=O)c1cc(Cl)cc(Cl)c1 [PA294, 3,5-dichloro-N,N-di-n.butyl-benzamide, reference compound] | 0-1 | 3 | 1 | 0-1 | 0 | 2 | –
9 | O=C(O)c1cc(Cl)cc(Cl)c1Cl [PA304, 2,3,5-trichloro-benzoic acid, reference compound] | 1 | 0 | 0 | 1 | 3 | 0 | –
10 | CCCN(CCC)C(=O)c1cccc(Cl)c1 [PA322, 3,chloro-N,N-di-n.propyl-benzamide, reference compound] | 1 | 0-1 | 0-1 | 1-2 | – | 1 | –
11 | CCCCN(CC)C(=O)c1ccc(Cl)c(Cl)c1 [PA325, 3,4-dichloro-N-ethyl,N-n.butyl-benzamide, reference compound] | 3 | 0-1 | 2 | 2 | 0 | 0-1 | –
12 | CCN(CC)C(=O)c1cccc(C)c1 [PA383, 3,methyl-N,N-diethyl-benzamide, reference compound] | 2 | 0-1 | 2 | 3 | 2 | 0-1 | –
13 | CCCN(CCC)C(=O)c1cccc(C)c1 [PA384, 3,methyl-N,N-di-n.propyl-benzamide, reference compound] | 1 | 0-1 | 2 | 2 | 1-2 | 1-2 | –
14 | Cc1cccc(C(=O)N(C(C)C)C(C)C)c1 [PA385, 3,methyl-N,N-di-isopropyl-benzamide, reference compound] | 1-2 | 0-1 | 1 | 2 | 0-1 | – | –
15 | CCCCN(CCCC)C(=O)c1cccc(C)c1 [PA386, 3,methyl-N,N-di-n.butyl-benzamide, reference compound] | 3 | 0-1 | 2-3 | 1-2 | 0-1 | 0-1 | –
16 | CCCCN(CCCC)C(=O)c1cccc(Br)c1 [PA396, 3-bromo-N,N-di-n,butyl-benzamide, reference compound] | 1 | 0 | 0-1 | 1-2 | 0 | 0-1 | –
17 | O=C(O)c1cccc(Cl)c1 [PA439, 3,chloro-benzoic acid, reference compound] | 0 | 0 | 0 | 0 | 0 | 0 | –
18 | O=C(O)c1cc(Cl)cc(Cl)c1 [PA440, 3,5-dichloro-benzoic acid, reference compound] | 0 | 0 | 0 | 0 | 0 | 0 | –
19 | O=C(O)c1ccc(Cl)cc1Cl [PA441, 2,4-dichloro-benzoic acid, reference compound] | 0 | 0 | 0 | 0 | 0 | 0 | –
20 | Cc1cccc(C(=O)O)c1 [PA442, 3,methyl-benzoic acid, reference compound] | 1 | 0 | 0 | 0 | 0 | 0 | –
21 | CCC(C)N(C(=O)c1ccc(Br)c(Br)c1)C(C)CC (stereo not shown) [PA484, 3,4-dibromo-N,N-di-sec.butyl-benzamide] | 2-3 | 4-3 | 2 | 2-3 | 0 | 3-4 | activity on A, 0-4 scale ([1]; 4 kg/ha): 1-2; activity on E, 0-4 scale (setaria glauca L.; 4 kg/ha): 3; activity on C, 0-4 scale (chenopodium album L.; 4 kg/ha): 1; activity on B, 0-4 scale (artemisia vulgaris L.; 4 kg/ha): 1; activity on F, 0-4 scale (vicia sativa L.; 4 kg/ha): 0; activity on D, 0-4 scale ([2]; 4 kg/ha): 3
22 | C=CCN(CC=C)C(=O)c1cccc(Br)c1 [PA499, 3-bromo-N,N-di-allyl-benzamide, reference compound] | – | 3 | 3 | 3 | 3 | 3 | activity on A, 0-4 scale ([1]; 4 kg/ha): 2-3; activity on E, 0-4 scale (setaria glauca L.; 4 kg/ha): 2; activity on C, 0-4 scale (chenopodium album L.; 4 kg/ha): 2; activity on B, 0-4 scale (artemisia vulgaris L.; 4 kg/ha): 3; activity on F, 0-4 scale (vicia sativa L.; 4 kg/ha): 1; activity on D, 0-4 scale ([2]; 4 kg/ha): 1
23 | CCC(C)N(C(=O)c1cc(Cl)ccc1Br)C(C)CC (stereo not shown) [PA504, 2-bromo,5-chloro-N,N-di-sec.butyl-benzamide] | 2 | 4 | 2 | 1-2 | 0-1 | 3-4 | activity on E, 0-4 scale (setaria glauca L.; 2 kg/ha): 2-3; activity on E, 0-4 scale (setaria glauca L.; 3 kg/ha): 3; activity on E, 0-4 scale (setaria glauca L.; 4 kg/ha): 3-4; activity on D, 0-4 scale ([2]; 2 kg/ha): 2-3; activity on D, 0-4 scale ([2]; 3 kg/ha): 2-3; activity on D, 0-4 scale ([2]; 4 kg/ha): 3
24 | CCC(C)N(CC(C)C)C(=O)c1ccc(Cl)c(Cl)c1 (stereo not shown) [PA566, 3,4-dichloro-N-isobutyl,N-sec.butyl-benzamide] | 3 | 4 | 3 | 2-3 | 0-1 | – | –
25 | CCC(C)N(C(=O)c1ccc(Cl)c(I)c1)C(C)CC (stereo not shown) [PA614, 4-chloro,3-iodo-N,N-di-sec.butyl-benzamide] | 1 | – | 1 | 0-1 | 0 | 3 | –
